ChEMBL document CHEMBL5120936, “S-Protected Cysteine Sulfoxide-Enabled Tryptophan-Selective Modification with Application to Peptide Lipidation” (ACS Med Chem Lett, 2022)
Calls of active or inactive are those of the source. The rule behind the calls is not given here.

Assays:
Assay type in all cases: functional, organism-based
Settings in all cases: dose 500.0 µg/kg
Mus musculus [1] = assay: Hypoglycemic activity in sixteen hrs fasted wild type C57BL/6 mouse assessed as reduction in glucose concentration at 500 microg/kg, ip followed by oral glucose at 2 g/Kg and measured upto 150 mins by OGTT
Mus musculus [2] = assay: Hypoglycemic activity in sixteen hrs fasted wild type C57BL/6 mouse assessed as increase in insulin concentration at 500 microg/kg, ip followed by oral glucose at 2 g/Kg and measured upto 150 mins by OGTT
Mus musculus [3] = assay: Hypoglycemic activity in sixteen hrs fasted wild type C57BL/6 mouse assessed as reduction in blood glucose level at 500 microg/kg, ip followed by oral glucose at 2 g/Kg and measured for 150 mins by OGTT
Mus musculus [4] = assay: Hypoglycemic activity in sixteen hrs fasted wild type C57BL/6 mouse assessed as reduction in blood glucose level at 500 microg/kg, ip followed by oral glucose at 2 g/Kg and measured for 120 mins by OGTT

SMILES	Activity (Mus musculus [1])	Activity (Mus musculus [2])	Activity (Mus musculus [3])	Activity (Mus musculus [4])
CC[C@H](C)[C@H](NC(=O)[C@H](Cc1ccccc1)NC(=O)[C@H](CCC(=O)O)NC(=O)[C@H](CCCCN)NC(=O)[C@H](C)NC(=O)[C@H](C)NC(=O)[C@H](CCC(N)=O)NC(=O)CNC(=O)[C@H](CCC(=O)O)NC(=O)[C@H](CC(C)C)NC(=O)[C@H](Cc1ccc(O)cc1)NC(=O)[C@H](CO)NC(=O)[C@H](CO)NC(=O)[C@@H](NC(=O)[C@H](CC(=O)O)NC(=O)[C@H](CO)NC(=O)[C@@H](NC(=O)[C@H](Cc1ccccc1)NC(=O)[C@@H](NC(=O)CNC(=O)[C@H](CCC(=O)O)NC(=O)[C@H](C)NC(=O)[C@@H](N)Cc1c[nH]cn1)[C@@H](C)O)[C@@H](C)O)C(C)C)C(=O)N[C@@H](C)C(=O)N[C@@H](Cc1c[nH]c2ccccc12)C(=O)N[C@@H](CC(C)C)C(=O)N[C@H](C(=O)N[C@@H](CCCCN)C(=O)NCC(=O)N[C@@H](CCCN=C(N)N)C(=O)NCC(=O)O)C(C)C	Active	Active		
CCCCCCCCCCCCCCCC(=O)NCCOCCOCC(=O)N[C@@H](CSc1[nH]c2ccccc2c1C[C@H](NC(=O)[C@H](C)NC(=O)[C@@H](NC(=O)[C@H](Cc1ccccc1)NC(=O)[C@H](CCC(=O)O)NC(=O)[C@H](CCCCN)NC(=O)[C@H](C)NC(=O)[C@H](C)NC(=O)[C@H](CCC(N)=O)NC(=O)CNC(=O)[C@H](CCC(=O)O)NC(=O)[C@H](CC(C)C)NC(=O)[C@H](Cc1ccc(O)cc1)NC(=O)[C@H](CO)NC(=O)[C@H](CO)NC(=O)[C@@H](NC(=O)[C@H](CC(=O)O)NC(=O)[C@H](CO)NC(=O)[C@@H](NC(=O)[C@H](Cc1ccccc1)NC(=O)[C@@H](NC(=O)CNC(=O)[C@H](CCC(=O)O)NC(=O)[C@H](C)NC(=O)[C@@H](N)Cc1cnc[nH]1)[C@@H](C)O)[C@@H](C)O)C(C)C)[C@@H](C)CC)C(=O)N[C@@H](CC(C)C)C(=O)N[C@H](C(=O)N[C@@H](CCCCN)C(=O)NCC(=O)N[C@@H](CCCNC(=N)N)C(=O)NCC(=O)O)C(C)C)C(N)=O			Active	Active
CCCCCCCCCCCCCCCC(=O)NCCOCCOCCOCCOCCOCCOCC(=O)N[C@@H](CSc1[nH]c2ccccc2c1C[C@H](NC(=O)[C@H](C)NC(=O)[C@@H](NC(=O)[C@H](Cc1ccccc1)NC(=O)[C@H](CCC(=O)O)NC(=O)[C@H](CCCCN)NC(=O)[C@H](C)NC(=O)[C@H](C)NC(=O)[C@H](CCC(N)=O)NC(=O)CNC(=O)[C@H](CCC(=O)O)NC(=O)[C@H](CC(C)C)NC(=O)[C@H](Cc1ccc(O)cc1)NC(=O)[C@H](CO)NC(=O)[C@H](CO)NC(=O)[C@@H](NC(=O)[C@H](CC(=O)O)NC(=O)[C@H](CO)NC(=O)[C@@H](NC(=O)[C@H](Cc1ccccc1)NC(=O)[C@@H](NC(=O)CNC(=O)[C@H](CCC(=O)O)NC(=O)[C@H](C)NC(=O)[C@@H](N)Cc1cnc[nH]1)[C@@H](C)O)[C@@H](C)O)C(C)C)[C@@H](C)CC)C(=O)N[C@@H](CC(C)C)C(=O)N[C@H](C(=O)N[C@@H](CCCCN)C(=O)NCC(=O)N[C@@H](CCCNC(=N)N)C(=O)NCC(=O)O)C(C)C)C(N)=O			Active	Active
